These results are taken from ChEMBL document CHEMBL5247651, “Oxadiazolopyridine Derivatives as Efficacious Mitochondrial Uncouplers in the Prevention of Diet-Induced Obesity” (J Med Chem, 2023).

Active and inactive are the calls of the source. No cut-off for these calls is given here.

Data set [1] in a line: Induction of mitochondrial uncoupling activity in rat L6 cells assessed as increase in oxygen consumption rate at 0.37 to 200 uM measured after 90 mins by agilent Seahorse XF analyzer relative to BAM15. As to conditions: dose 0.37-200 µM, 1.5 h. Format: functional.
Data set [2] relates to Mus musculus. In words: Anti-obesity activity in high-sugar western diet induced obesity C57BL/6j mouse model assessed as food consumption at 130 mg/kg per day, po administered for 14 days ( Rvb = 2.5 +/- 0.5 g/day per mouse). As to conditions: time 14 day. Format: functional.
Data set [3] can be described thus: Observed apparent volume of distribution in C57BL/6 mouse at 10 mg/kg, po measured upto 24 hrs by LC/MS-MS analysis. Conditions: in vivo. Format: ADME, organism-based.
Data set [4] can be described thus: Apparent permeability across apical to basolateral side in human Caco-2 cells. The format is ADME, cell-based.
Data set [5] has as its system Mus musculus. In words: Anti-obesity activity in high-sugar western diet induced obesity C57BL/6j mouse model assessed as decrease in body weight at 130 mg/kg per day, po administered for 14 days. Conditions: time 14.0 day. The format is functional, organism-based.
Data set [6] is described as follows: Drug distribution in fasted C57BL/6j mouse brown adipose tissue at 10 mg/kg, po measured after 2 hrs by LC-MS/MS analysis. Format: ADME, organism-based. Conditions: in vivo.
The test system of data set [7] is Mus musculus. In words: Anti-obesity activity in high-fat diet induced obesity C57BL/6 mouse model assessed as increase in oxygen consumption at 130 mg/kg, po measured upto 4 hrs by indirect calorimetric analysis. Format: functional, organism-based.
A short description of data set [8]: Drug distribution in fasted C57BL/6j mouse white adipose tissue at 10 mg/kg, po measured after 2 hrs by LC-MS/MS analysis. Conditions: in vivo. Format: ADME, organism-based.
For data set [9], the system named is Mus musculus. In words: Anti-obesity activity in C57BL/6j mouse assessed as increase in glucose level at 130 mg/kg per day, po administered via gavage daily measured after 3 weeks by glucose tolerance test. The format is functional, organism-based.
Data set [10] deals with Mus musculus. In words: Anti-obesity activity in high-sugar western diet induced obesity C57BL/6j mouse model assessed as decrease in gonadal white adipose tissue weight at 130 mg/kg per day, po administered via gavage daily measured after 3 weeks. The format is functional, organism-based.
Data set [11] relates to Mus musculus. In words: Anti-obesity activity in high-sugar western diet induced obesity C57BL/6j mouse model assessed as decrease in serum glucose level at 130 mg/kg per day, po administered measured after 2 weeks. Format: functional, organism-based.
The conditions of data set [12]: mouse, in vivo, po, 10 mg/kg, 24 h.

The Papp A→B is how fast a substance crosses the layer from the apical side.

As to `Oc1nc2nonc2cc1Nc1c(F)c(F)c(F)c(F)c1F`, the Activity is 48% in data set [1] and 2.5 g/day in the data set with Mus musculus [2]. Also, the Vz in data set [3] amounted to 0.74 L/kg. Also, the Papp A→B in [4] stood at 12.4 ×10⁻⁶ cm/s. Moreover, the outcome with Mus musculus [5], with Mus musculus [7], in the data set on Mus musculus [10] and in the data set with Mus musculus [11] was Active. Also, the Drug uptake entry in data set [6] and in data set [8] was “Active” each time. Further, in the data set with Mus musculus [9], the result was inactive. This molecule also displayed a F in data set [12] of 75%.
